# Measurements from US6737383B1, “Herbicidal oxadiazolidines” (priority 1999, dated 2004).
# Tests used:
# [1] = system: cocklebur; assay: Test B pre/postemergence cocklebur; assay type: in vivo, Xanthium strumarium; settings: for Cocklebur plant response rating: Postemergence; for Plant response rating, Cocklebur: Preemergence
# Outline: (§1)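 Test chemicals in a non-phytotoxic solvent mixture with surfactant were sprayed preemergence onto planted seeds and postemergence onto plants 2 to 18 cm tall (1- to 4-leaf stage). After twelve to sixteen days in a greenhouse, injury was visually rated against untreated controls from 0 (no effect) to 10 (complete control).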
# [2] = system: blackgrass; assay: Test B pre/postemergence blackgrass; assay type: in vivo, Alopecurus myosuroides; settings: for Blackgrass plant response rating: Postemergence; for Plant response rating, Blackgrass: Preemergence
# Outline: as §1
# [3] = system: duck salad; assay: Test B flood test duck salad; assay type: in vivo, Heteranthera limosa
# Outline: (§2)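 Flood test on plants grown to the 2-leaf stage; treated plants kept in greenhouse twelve to sixteen days, then visually rated against controls on a 0 (no effect) to 10 (complete control) scale.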
# [4] = system: bamyardgrass; assay: Test B flood test barnyardgrass; assay type: in vivo, Echinochloa crus-galli
# Outline: as §2
# [5] = system: crabgrass; assay: Test B pre/postemergence crabgrass; assay type: in vivo, Digitaria sanguinalis; settings: for Crabgrass plant response rating: Postemergence; for Plant response rating, Crabgrass: Preemergence
# Outline: as §1
# [6] = system: morningglory; assay: Test B pre/postemergence morningglory; assay type: in vivo, Ipomoea hederacea; settings: for Morningglory plant response rating: Postemergence; for Plant response rating, Morningglory: Preemergence
# Outline: as §1
# [7] = system: purple nutsedge; assay: Test B pre/postemergence purple nutsedge; assay type: in vivo, Cyperus rotundus; settings: for Nutsedge plant response rating: Postemergence; for Plant response rating, Nutsedge: Preemergence
# Outline: as §1
# [8] = system: velvetleaf; assay: Test B pre/postemergence velvetleaf; assay type: in vivo, Abutilon theophrasti; settings: for Velvetleaf plant response rating: Postemergence; for Plant response rating, Velvetleaf: Preemergence
# Outline: as §1
# [9] = system: pigweed; assay: Test B pre/postemergence pigweed; assay type: in vivo, Amaranthus retroflexus; settings: for Redroot pigweed plant response rating: Postemergence; for Plant response rating, Redroot pigweed: Preemergence
# Outline: as §1
# [10] = system: wild oat; assay: Test B pre/postemergence wild oat; assay type: in vivo, Avena fatua; settings: for Wild oats plant response rating: Postemergence; for Plant response rating, Wild oats: Preemergence
# Outline: as §1
# [11] = system: corn; assay: Test B pre/postemergence corn; assay type: in vivo, Zea mays; settings: for Corn plant response rating: Postemergence; for Plant response rating, Corn: Preemergence
# Outline: as §1
# [12] = system: bedstraw; assay: Test B pre/postemergence bedstraw; assay type: in vivo, Galium aparine; settings: Postemergence
# Outline: as §1
# [13] = system: giant foxtail; assay: Test B pre/postemergence giant foxtail; assay type: in vivo, Setaria faberii; settings: for Giant foxtail plant response rating: Postemergence; for Plant response rating, Giant foxtail: Preemergence
# Outline: as §1
# [14] = system: wheat; assay: Test B pre/postemergence wheat; assay type: in vivo, Triticum aestivum; settings: for Wheat plant response rating: Postemergence; for Plant response rating, Wheat: Preemergence
# Outline: as §1
# [15] = system: sugar beet; assay: Test B pre/postemergence sugar beet; assay type: in vivo, Beta vulgaris; settings: for Sugarbeets plant response rating: Postemergence; for Plant response rating, Sugarbeets: Preemergence
# Outline: as §1
# [16] = system: smallflower flatsedge; assay: Test B flood test smallflower flatsedge; assay type: in vivo, Cyperus difformis
# Outline: as §2
# [17] = system: rice; assay: Test B flood test rice; assay type: in vivo, Oryza sativa
# Outline: as §2
# [18] = system: soybean; assay: Test B pre/postemergence soybean; assay type: in vivo, Glycine max; settings: for Soybean plant response rating: Postemergence; for Plant response rating, Soybean: Preemergence
# Outline: as §1
# [19] = system: surinam grass; assay: Test B pre/postemergence surinam grass; assay type: in vivo, Brachiaria decumbens; settings: for B. signalgrass plant response rating: Postemergence; for Plant response rating, B. signalgrass: Preemergence
# Outline: as §1
# [20] = system: rape; assay: Test B pre/postemergence rape; assay type: in vivo, Brassica napus; settings: for Rape plant response rating: Postemergence; for Plant response rating, Rape: Preemergence
# Outline: as §1
# [21] = Rate 125 g/ha, scale of 0 to 10 where 0 is no effect and 10 is complete control
# [22] = Rate 1000 g/ha, scale 0 to 10 (0 no effect, 10 complete control)
# [23] = Rate 250 g/ha, scale 0 to 10 (0 no effect, 10 complete control)
# [24] = Rate 500 g/ha, scale of 0 to 10 where 0 is no effect and 10 is complete control
# [25] = Rate 250 g/ha, scale 0 to 10, 0 is no effect, 10 is complete control
# [26] = Rate 500 g/ha, scale 0 to 10, 0 is no effect, 10 is complete control
# [27] = Pre-emergence, Rate 1000 g/ha, scale 0 to 10 (0 no effect, 10 complete control)
# [28] = Rate 125 g/ha, under heading Pre-emergence, flood test species, visual evaluation after twelve to sixteen days
# [29] = Rate 250 g/ha, Pre-emergence (flood test species), scale 0 to 10, 0 is no effect, 10 is complete control
# [30] = Rate 500 g/ha, Pre-emergence section of Table B, 0 to 10 scale (0 no effect, 10 complete control)
smiles,measurement,setting,value
COC(=O)C(CCO)n1c(=O)on(C(=O)N(c2ccc(F)cc2)C(C)C)c1=O (stereo not drawn) [Compound 680],Cocklebur plant response rating,[1]; [21],0
same,Cocklebur plant response rating,[1]; [22],0
same,"Plant response rating, Cocklebur",[1]; [21],0
same,"Plant response rating, Cocklebur",[1]; [23],0
same,"Plant response rating, Cocklebur",[1]; [24],0
same,Cocklebur plant response rating,[1]; [25],0
same,Cocklebur plant response rating,[1]; [26],0
same,"Plant response rating, Cocklebur",[1]; [22],0
same,Blackgrass plant response rating,[2]; [21],0
same,Blackgrass plant response rating,[2]; [22],3
same,"Plant response rating, Blackgrass",[2]; [21],0
same,"Plant response rating, Blackgrass",[2]; [23],0
same,"Plant response rating, Blackgrass",[2]; [24],4
same,Blackgrass plant response rating,[2]; [25],0
same,Blackgrass plant response rating,[2]; [26],1
same,"Plant response rating, Blackgrass",[2]; [22],4
same,Ducksalad plant response rating,[3]; [27],0
same,"Ducksalad plant response rating (0 to 10 scale, 0 is no effect, 10 is complete control)",[3]; [28],0
same,Ducksalad plant response rating,[3]; [29],0
same,Ducksalad plant response rating,[3]; [30],0
same,Barnyardgrass plant response rating,[4]; [27],0
same,"Barnyardgrass plant response rating (0 to 10 scale, 0 is no effect, 10 is complete control)",[4]; [28],0
same,Barnyardgrass plant response rating,[4]; [29],0
same,Barnyardgrass plant response rating,[4]; [30],0
same,Crabgrass plant response rating,[5]; [21],0
same,Crabgrass plant response rating,[5]; [22],9
same,"Plant response rating, Crabgrass",[5]; [21],0
same,"Plant response rating, Crabgrass",[5]; [23],3
same,"Plant response rating, Crabgrass",[5]; [24],3
same,Crabgrass plant response rating,[5]; [25],1
same,Crabgrass plant response rating,[5]; [26],3
same,"Plant response rating, Crabgrass",[5]; [22],3
same,Morningglory plant response rating,[6]; [21],1
same,Morningglory plant response rating,[6]; [22],7
same,"Plant response rating, Morningglory",[6]; [21],0
same,"Plant response rating, Morningglory",[6]; [24],0
same,Morningglory plant response rating,[6]; [25],1
same,Morningglory plant response rating,[6]; [26],1
same,"Plant response rating, Morningglory",[6]; [22],0
same,Nutsedge plant response rating,[7]; [21],0
same,"Plant response rating, Nutsedge",[7]; [21],0
same,"Plant response rating, Nutsedge",[7]; [24],0
same,Nutsedge plant response rating,[7]; [25],0
same,Nutsedge plant response rating,[7]; [26],0
same,"Plant response rating, Nutsedge",[7]; [22],0
same,Velvetleaf plant response rating,[8]; [21],0
same,"Plant response rating, Velvetleaf",[8]; [21],0
same,"Plant response rating, Velvetleaf",[8]; [24],0
same,Velvetleaf plant response rating,[8]; [25],0
same,Velvetleaf plant response rating,[8]; [26],0
same,"Plant response rating, Velvetleaf",[8]; [22],4
same,Redroot pigweed plant response rating,[9]; [21],0
same,Redroot pigweed plant response rating,[9]; [22],5
same,"Plant response rating, Redroot pigweed",[9]; [21],0
same,"Plant response rating, Redroot pigweed",[9]; [24],3
same,Redroot pigweed plant response rating,[9]; [25],0
same,Redroot pigweed plant response rating,[9]; [26],0
same,"Plant response rating, Redroot pigweed",[9]; [22],7
same,Wild oats plant response rating,[10]; [21],0
same,"Plant response rating, Wild oats",[10]; [21],0
same,"Plant response rating, Wild oats",[10]; [24],0
same,Wild oats plant response rating,[10]; [25],0
same,Wild oats plant response rating,[10]; [26],0
same,"Plant response rating, Wild oats",[10]; [22],2
same,Corn plant response rating,[11]; [21],0
same,Corn plant response rating,[11]; [22],1
same,"Plant response rating, Corn",[11]; [21],0
same,"Plant response rating, Corn",[11]; [23],0
same,"Plant response rating, Corn",[11]; [24],0
same,Corn plant response rating,[11]; [25],0
same,Corn plant response rating,[11]; [26],0
same,"Plant response rating, Corn",[11]; [22],0
same,Bedstraw plant response rating,[12]; [21],0
same,Bedstraw plant response rating,[12]; [25],0
same,Bedstraw plant response rating,[12]; [26],0
same,Giant foxtail plant response rating,[13]; [21],0
same,Giant foxtail plant response rating,[13]; [22],8
same,"Plant response rating, Giant foxtail",[13]; [21],0
same,"Plant response rating, Giant foxtail",[13]; [24],4
same,Giant foxtail plant response rating,[13]; [25],0
same,Giant foxtail plant response rating,[13]; [26],5
same,"Plant response rating, Giant foxtail",[13]; [22],7
same,Wheat plant response rating,[14]; [21],0
same,"Plant response rating, Wheat",[14]; [21],0
same,"Plant response rating, Wheat",[14]; [24],0
same,Wheat plant response rating,[14]; [25],0
same,Wheat plant response rating,[14]; [26],0
same,"Plant response rating, Wheat",[14]; [22],0
same,Sugarbeets plant response rating,[15]; [21],0
same,"Plant response rating, Sugarbeets",[15]; [21],0
same,"Plant response rating, Sugarbeets",[15]; [24],0
same,Sugarbeets plant response rating,[15]; [25],0
same,Sugarbeets plant response rating,[15]; [26],0
same,"Plant response rating, Sugarbeets",[15]; [22],0
same,S. Flatsedge plant response rating,[16]; [27],0
same,"S. Flatsedge plant response rating (0 to 10 scale, 0 is no effect, 10 is complete control)",[16]; [28],0
same,S. Flatsedge plant response rating,[16]; [29],0
same,S. Flatsedge plant response rating,[16]; [30],0
same,Rice plant response rating,[17]; [27],0
same,"Rice plant response rating (0 to 10 scale, 0 is no effect, 10 is complete control)",[17]; [28],0
same,Rice plant response rating,[17]; [29],0
same,Rice plant response rating,[17]; [30],0
same,Soybean plant response rating,[18]; [21],0
same,"Plant response rating, Soybean",[18]; [21],0
same,"Plant response rating, Soybean",[18]; [24],0
same,Soybean plant response rating,[18]; [25],0
same,Soybean plant response rating,[18]; [26],3
same,"Plant response rating, Soybean",[18]; [22],0
same,B. signalgrass plant response rating,[19]; [21],0
same,B. signalgrass plant response rating,[19]; [22],3
same,"Plant response rating, B. signalgrass",[19]; [21],0
same,"Plant response rating, B. signalgrass",[19]; [23],0
same,"Plant response rating, B. signalgrass",[19]; [24],0
same,B. signalgrass plant response rating,[19]; [25],0
same,B. signalgrass plant response rating,[19]; [26],0
same,"Plant response rating, B. signalgrass",[19]; [22],0
same,Rape plant response rating,[20]; [21],0
same,Rape plant response rating,[20]; [22],0
same,"Plant response rating, Rape",[20]; [21],0
same,"Plant response rating, Rape",[20]; [24],0
same,Rape plant response rating,[20]; [25],0
same,Rape plant response rating,[20]; [26],0
same,"Plant response rating, Rape",[20]; [22],0
